Data on 10 compounds can be found in patent EP0973746B1, “SUBSTITUTED 3-CYANO QUINOLINES” (Wyeth Holdings Corporation, priority 1997, dated 1998).

pIC50: −log10 of the molar value. Converted amounts (≈) assume the structure as drawn. Where two headings read alike, the source gives them in different places.

One test deals with T47D. The experiment in a line: Inhibition of cancer cell growth as measured by cell number, T47D. Format: cell-based. The note with it: Homo sapiens, 48 h, read-out: IC50 T47D.
A further test deals with SKBR3. Put plainly: Inhibition of cancer cell growth as measured by cell number, SKBR3.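 Also: SK-BR-3 cells were selected as a line overexpressing HER2/neu.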 The test is classed as cell-based, human. As to conditions: Homo sapiens, SK-BR-3, 48 h.
In a further test the test system is SW620. Put plainly: Inhibition of cancer cell growth as measured by cell number, SW620.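 Also: SW620 was included as a cell line with little or no EGFR or HER2/neu expression, in contrast to receptor-overexpressing lines.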 The test is classed as cell-based, human. As to conditions: Homo sapiens, SW-620, 48 h.
The test system of the next test is MCF7. The experiment in a line: Inhibition of cancer cell growth as measured by cell number, MCF7.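 Also: MCF7 was included as a line with little or no EGFR or HER2/neu expression, in contrast to the receptor-overexpressing lines of the panel.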 Format: cell-based, human. As to conditions: Homo sapiens, MCF7, 48 h, read-out: IC50 MCF7, cell number, Sulforhodamine B, 48 hours exposure; Table 5.
The subject of another test is LS174T. The experiment in a line: Inhibition of cancer cell growth as measured by cell number, LS174T. Format: cell-based. As to conditions: Homo sapiens, 48 h, read-out: IC50 LS174T.
The next test concerns B7474. Put plainly: Inhibition of cancer cell growth as measured by cell number, B7474. Format: cell-based. As to conditions: Homo sapiens, 48 h, read-out: IC50 B7474.
Another test has as its system CCRF-CFM. The experiment in a line: Inhibition of cancer cell growth as measured by cell number, CCRF-CFM. Format: cell-based. The note with it: Homo sapiens, 48 h, read-out: IC50 CCRF-CFM.
The subject of a further test is NEC. Put plainly: Inhibition of cancer cell growth as measured by cell number, NEC. The test is classed as cell-based. As to conditions: Homo sapiens, 48 h, read-out: IC50 NEC.
A further test concerns CCL228. The experiment in a line: Inhibition of cancer cell growth as measured by cell number, CCL228. Format: cell-based. As to conditions: Homo sapiens, 48 h, read-out: IC50 CCL228.
In a further test the test system is CX1. Put plainly: Inhibition of cancer cell growth as measured by cell number, CX1. The test is classed as cell-based. The note with it: Homo sapiens, CX-1, 48 h, read-out: IC50 CX1.
The subject of the next test is LOX. Put plainly: Inhibition of cancer cell growth as measured by cell number, LOX.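 Also: LOX cells served as a line with low or absent EGFR and HER2/neu expression, in contrast to receptor-overexpressing lines.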 The note with it: Homo sapiens, LOX, 48 h, read-out: IC50 LOX, cell number, Sulforhodamine B, 48 hours exposure; Table 6. Format: cell-based, human.
The next test relates to LNCAP. Put plainly: Inhibition of cancer cell growth as measured by cell number, LNCAP. Format: cell-based. The note with it: Homo sapiens, 48 h, read-out: IC50 LNCAP.
For test [1], the target named is recombinant human MEK 1 (MAPKK) and recombinant human ERK2 (MAPK). The experiment in a line: Mitogen Activated Protein Kinase (MAPK) assay, two component coupled MEK 1 / ERK2.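 Also: MEK 1-activated ERK2 phosphorylates MBP or Myc peptide with 33P-ATP, filter capture and scintillation counting, inhibitor preincubated with ERK2 30 min at 0 °C, inhibition relative to uninhibited control.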 The test is classed as biochemical. The note with it: separate entries for the same compound = evaluated more than one time.
Test [2] concerns the target epidermal growth factor receptor kinase (Homo sapiens, UniProt P00533). The experiment in a line: biochemical.
Test [3] addresses Epithelial Cell Kinase (ECK) (Homo sapiens, UniProt P29317). The experiment in a line: biochemical.
Method: In this standard pharmacological test procedure, a biotinylated peptide substrate is first immobilized on neutravidin-coated microtiter plates. The test drug, the Epithelial Cell Kinase (ECK), Mg^++, sodium vanadate (a protein tyrosine phosphatase inhibitor), and an appropriate buffer to maintain pH (7.2) are then added to the immobilized substrate-containing microtiter wells. ATP is then added to initiate phosphorylation. After incubation, the assay plates are washed with a suitable buffer leaving behind phosphorylated peptide which is exposed to horse radish peroxidase (HRP)-conjugated anti-phosphotyrosine monoclonal antibody. The antibody-treated plates are washed again and the HRP activity in individual wells is quantified as a reflection of degree of substrate phosphorylation.
Test [4] addresses T1, His-tagged cytoplasmic domain of EGFR (Homo sapiens, UniProt P00533).
T1 construct: containing the EGFR cDNA encoding amino acids 645 - 1186 preceded by Met-Ala-(His)6; made in house; host or cells: Sf9 cells, recombinant baculovirus vHcEGFR52
Put plainly: Inhibition of Epidermal Growth Factor Receptor Kinase (EGF-R) using recombinant enzyme.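 Also: radiometric kinase assay measuring radiolabeled phosphate transfer from ATP onto the peptide tyrosine by scintillation counting, control is reaction without compound, background subtracted, IC50 from dose-response curve.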 The note with it: recombinant enzyme; RR-SRC peptide; average of the number of tests; read-out: IC50. The test is classed as biochemical.
Method: The enzyme used in this assay is the His-tagged cytoplasmic domain of EGFR.
Compounds to be evaluated were made into 10 mg/mL stock solutions in 100% dimethylsulfoxide (DMSO). Prior to experiment, stock solutions were diluted to 500 µM with 100% DMSO and then serially diluted to the desired concentration with HEPES buffer (30 mM HEPES pH 7.4).
For the enzyme reaction, 10 µL of each inhibitor (at various concentrations) were added to each well of a 96-well plate. […] This was allowed to sit for 10 min on ice and was followed by the addition of 5 µl peptide (80 µM final conc.), 10µl of 4X Buffer (Table A), 0.25 µL ^33P-ATP and 12 µL H2O. The reaction was allowed to run for 90 min at room temperature and was followed by spotting the entire volume on to precut P81 filter papers. The filter discs were washed 2X with 0.5% phosphoric acid and radioactivity was measured using a liquid scintillation counter.
The % inhibition of the test compound was determined for at least three different concentrations and the IC50 value was evaluated from the dose response curve. […] CPM(control) is in units of counts per minute and was a number expressing the amount of radiolabeled ATP (g-33P) incorporated into the RR-SRC peptide substrate by the enzyme after 90 minutes at room temperature in the absence of test compound as measured by liquid scintillation counting. The CPM values were corrected for the background counts produced by ATP in the absence of the enzymatic reaction. The IC50 values reported in TABLE 2 are averages of the number of tests conducted.

Test [5] has as its target T2, Kinase insert Domain containing Receptor (KDR: the catalytic domain of the VEGF receptor) (Homo sapiens, UniProt P35968).
T2 construct: KDR: the catalytic domain of the VEGF receptor
The experiment in a line: Inhibition of Kinase insert Domain containing Receptor (KDR).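 Also: KDR phosphorylating a Glu:Tyr 4:1 copolymer with P32- or P33-labelled ATP, Mg++ and vanadate, read as acid-insoluble radiolabel, compared with compound-free reaction.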 The test is classed as biochemical. As to conditions: pH 7.2; radioactive format; read-out: KDR IC50 (converted).
Method: In this standard pharmacological test procedure, KDR protein is mixed, in the presence or absence of a inhibitor compound, with a substrate peptide to be phosphorylated (a copolymer of glutamic acid and tyrosine, E:Y :: 4:1) and other cofactors such as Mg^++ and sodium vanadate (a protein tyrosine phosphatase inhibitor) in an appropriate buffer to maintain pH (7.2). ATP and a radioactive tracer (either P^32-or P^33- labeled ATP) is then add to initiate phosphorylation. After incubation, the radioactive phosphate associated with the acid-insoluble fraction of the assay mixture is then quantified as reflection of substrate phosphorylation.

Another test concerns A431. Put plainly: Inhibition of cancer cell growth as measured by cell number, A431.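 Also: human A431 line, picked because it overexpresses epidermal growth factor receptor (EGFR).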 Format: cell-based, human. As to conditions: Homo sapiens, A-431, 48 h, read-out: IC50 A431.
[6] abbreviates: read-out: IC50 SKBR3, cell number, Sulforhodamine B, 48 hours exposure, Table 7.
The mark [7] stands for this setting: read-out: IC50 SW620, cell number, Sulforhodamine B, 48 hours exposure, Table 4.

Chain of epidermal growth factor receptor kinase (P00533 25-1210): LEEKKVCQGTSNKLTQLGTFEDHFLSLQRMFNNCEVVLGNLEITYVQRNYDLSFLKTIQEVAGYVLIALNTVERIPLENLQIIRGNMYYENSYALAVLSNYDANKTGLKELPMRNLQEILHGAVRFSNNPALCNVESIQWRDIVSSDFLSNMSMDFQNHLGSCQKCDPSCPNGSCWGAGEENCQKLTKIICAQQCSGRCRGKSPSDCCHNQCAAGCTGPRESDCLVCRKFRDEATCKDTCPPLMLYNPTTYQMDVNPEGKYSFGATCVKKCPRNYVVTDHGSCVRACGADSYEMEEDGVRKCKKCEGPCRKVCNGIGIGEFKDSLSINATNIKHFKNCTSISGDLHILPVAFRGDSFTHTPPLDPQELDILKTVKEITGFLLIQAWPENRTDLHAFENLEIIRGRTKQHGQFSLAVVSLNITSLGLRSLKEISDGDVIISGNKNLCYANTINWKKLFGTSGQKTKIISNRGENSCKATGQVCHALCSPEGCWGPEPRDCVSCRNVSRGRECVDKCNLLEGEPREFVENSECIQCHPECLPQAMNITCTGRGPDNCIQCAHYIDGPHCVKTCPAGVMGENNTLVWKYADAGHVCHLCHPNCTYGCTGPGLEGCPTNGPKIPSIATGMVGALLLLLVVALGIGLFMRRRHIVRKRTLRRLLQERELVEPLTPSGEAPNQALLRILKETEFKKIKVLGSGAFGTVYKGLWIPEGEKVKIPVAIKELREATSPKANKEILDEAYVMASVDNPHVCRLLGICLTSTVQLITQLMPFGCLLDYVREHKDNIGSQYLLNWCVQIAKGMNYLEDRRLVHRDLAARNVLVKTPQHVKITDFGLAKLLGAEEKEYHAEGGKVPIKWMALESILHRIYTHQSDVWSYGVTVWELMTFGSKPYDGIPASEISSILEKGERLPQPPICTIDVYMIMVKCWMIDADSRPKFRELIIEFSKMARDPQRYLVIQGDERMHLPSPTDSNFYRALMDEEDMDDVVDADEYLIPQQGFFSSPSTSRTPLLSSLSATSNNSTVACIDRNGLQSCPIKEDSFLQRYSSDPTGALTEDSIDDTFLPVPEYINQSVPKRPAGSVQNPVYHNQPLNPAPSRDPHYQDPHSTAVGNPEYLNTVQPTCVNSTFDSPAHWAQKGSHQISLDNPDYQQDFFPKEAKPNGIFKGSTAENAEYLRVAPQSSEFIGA
T2 sequence (P35968 834-1162 limits assumed): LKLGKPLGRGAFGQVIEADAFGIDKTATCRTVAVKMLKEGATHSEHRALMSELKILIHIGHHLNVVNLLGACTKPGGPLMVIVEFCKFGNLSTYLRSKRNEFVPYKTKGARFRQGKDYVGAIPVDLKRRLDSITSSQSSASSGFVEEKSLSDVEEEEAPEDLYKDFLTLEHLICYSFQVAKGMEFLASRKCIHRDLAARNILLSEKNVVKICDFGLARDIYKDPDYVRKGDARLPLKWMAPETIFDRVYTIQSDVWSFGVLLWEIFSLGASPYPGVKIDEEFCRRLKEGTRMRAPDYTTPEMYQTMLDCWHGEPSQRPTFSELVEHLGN
Chain of Epithelial Cell Kinase (ECK) (P29317 24-976, species assumed): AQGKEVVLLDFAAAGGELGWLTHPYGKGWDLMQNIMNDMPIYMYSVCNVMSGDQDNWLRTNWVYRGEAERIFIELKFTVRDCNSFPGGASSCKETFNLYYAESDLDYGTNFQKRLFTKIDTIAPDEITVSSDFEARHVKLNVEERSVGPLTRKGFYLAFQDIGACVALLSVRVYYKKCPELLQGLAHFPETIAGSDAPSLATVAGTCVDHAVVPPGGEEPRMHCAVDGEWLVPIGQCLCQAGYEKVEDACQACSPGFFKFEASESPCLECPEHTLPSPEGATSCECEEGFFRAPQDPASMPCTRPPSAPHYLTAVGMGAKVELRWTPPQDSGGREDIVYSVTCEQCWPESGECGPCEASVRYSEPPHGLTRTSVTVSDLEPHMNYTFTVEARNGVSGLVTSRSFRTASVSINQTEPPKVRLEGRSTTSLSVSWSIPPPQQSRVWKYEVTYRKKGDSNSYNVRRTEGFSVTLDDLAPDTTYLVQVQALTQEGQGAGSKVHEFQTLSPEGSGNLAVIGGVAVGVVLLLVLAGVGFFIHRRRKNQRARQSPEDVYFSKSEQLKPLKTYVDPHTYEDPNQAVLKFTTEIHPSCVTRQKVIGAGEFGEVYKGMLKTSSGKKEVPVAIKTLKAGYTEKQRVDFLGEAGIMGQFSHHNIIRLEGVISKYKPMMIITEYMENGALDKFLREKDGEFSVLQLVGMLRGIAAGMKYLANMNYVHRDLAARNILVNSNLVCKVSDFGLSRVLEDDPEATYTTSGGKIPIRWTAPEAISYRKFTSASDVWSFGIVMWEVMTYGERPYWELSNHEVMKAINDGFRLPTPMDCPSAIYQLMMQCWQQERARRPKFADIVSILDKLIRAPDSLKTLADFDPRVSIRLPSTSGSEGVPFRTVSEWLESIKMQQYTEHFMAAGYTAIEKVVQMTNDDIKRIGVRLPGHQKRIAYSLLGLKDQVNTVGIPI
T1 sequence (P00533 669-1210): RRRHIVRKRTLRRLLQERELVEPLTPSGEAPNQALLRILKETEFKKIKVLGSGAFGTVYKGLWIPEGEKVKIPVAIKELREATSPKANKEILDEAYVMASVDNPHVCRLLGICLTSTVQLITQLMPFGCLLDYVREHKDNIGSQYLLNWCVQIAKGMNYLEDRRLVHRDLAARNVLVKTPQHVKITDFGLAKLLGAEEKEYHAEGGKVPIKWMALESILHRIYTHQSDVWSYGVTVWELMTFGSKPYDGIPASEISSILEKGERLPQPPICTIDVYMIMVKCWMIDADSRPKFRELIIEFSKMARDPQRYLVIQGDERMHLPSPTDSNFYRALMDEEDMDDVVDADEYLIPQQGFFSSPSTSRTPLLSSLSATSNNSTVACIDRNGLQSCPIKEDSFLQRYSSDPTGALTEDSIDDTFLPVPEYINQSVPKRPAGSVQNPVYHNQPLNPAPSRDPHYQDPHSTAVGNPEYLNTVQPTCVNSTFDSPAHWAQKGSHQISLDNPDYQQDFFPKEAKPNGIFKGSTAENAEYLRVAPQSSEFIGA
From the text for A431: (§1) The cell lines were chosen since they overexpressed epidermal growth factor receptor (EGFR) (i.e. A431) or HER2/neu (SKBR3), or had little to no expression of the these receptors (SW620, LOX, MCF7).
From the text for LOX: as §1
From the text for MCF7: as §1
From the text for SKBR3: as §1
From the text for SW620: as §1

On to `COc1cc2ncc(C#N)c(Nc3cccc(C(F)(F)F)c3)c2cc1OC` [Example 42, 4-[(3-Trifluoromethylphenyl)amino]-6,7-dimethoxy-3-quinolinecarbonitrile], for which the IC50 (as a rule, the concentration that gives 50% inhibition) with T47D amounted to 6.78 µg/mL (≈ 18.2 µM); in the test on SKBR3 (setting [6]), 12.5 µg/mL (≈ 33.6 µM); with SW620 (setting [7]) it was 31.2 µg/mL (≈ 83.5 µM); in the test with MCF7 it was 6.14 µg/mL (≈ 16.5 µM); with LS174T it was 5.97 µg/mL (≈ 16 µM); in the test with B7474, 6.78 µg/mL (≈ 18.2 µM). In addition, the IC50 in the test with CCRF-CFM is 5.23 µg/mL (≈ 14 µM); with NEC, 6.47 µg/mL (≈ 17.3 µM).
With `COc1ccc(Nc2c(C#N)cnc3cc(OC)c(OC)cc23)cc1OC` [Example 43, 4-[(3,4-Dimethoxyphenyl)amino]-6,7-dimethoxy-3-quinolinecarbonitrile], the IC50 in the test on CCL228 was 2.56 µg/mL (≈ 7 µM); in the test on CX1, 3.43 µg/mL (≈ 9.38 µM); in the test with T47D, 4.5 µg/mL (≈ 12.3 µM); with SKBR3 (setting [6]) it was 5.19 µg/mL (≈ 14.2 µM); with SW620 (setting [7]), 4.33 µg/mL (≈ 11.8 µM); in the test on MCF7, 5.83 µg/mL (≈ 16 µM). The IC50 in the test with LS174T amounted to 4.22 µg/mL (≈ 11.6 µM); in the test on LOX it was 2.86 µg/mL (≈ 7.83 µM); in the test on LNCAP, 4.53 µg/mL (≈ 12.4 µM). Also, the pIC50 (commonly −log10 of the IC50, conventionally taken in molar units) in test [1] was 4.52.
Take `N#Cc1cnc2ccc(NC(=O)/C=C/Cl)cc2c1Nc1cccc(Br)c1` [Example 51, N-[4-[(3-Bromophenyl)amino]-3-cyano-6-quinolinyl]-3(E)-chloro-2-propenamide]: the pIC50 in test [2] was 10.30.
Turning to `N#Cc1cnc2ccc(NC(=O)/C=C\Cl)cc2c1Nc1cccc(Br)c1` [Example 52, N-[4-[(3-Bromophenyl)amino]-3-cyano-6-quinolinyl]-3(Z)-chloro-2-propenamide], the pIC50 in test [2] was 8.00.
In turn, `C=C(C)C(=O)Nc1ccc2ncc(C#N)c(Nc3cccc(Br)c3)c2c1` [Example 53, N-[4-[(3-Bromophenyl)amino]-3-cyano-6-quinolinyl]-2-methyl-2-propenamide] had a pIC50 in [2] of 8.15.
In test [2], `C=CC(=O)Nc1ccc2ncc(C#N)c(Nc3ccc(Br)c(Br)c3)c2c1` [Example 54, N-[4-[(3,4-Dibromophenyl)amino]-3-cyano-6-quinolinyl]-2-propenamide] gave a negative logarithm of the IC50 (pIC50) of 8.15.
Regarding `N#Cc1cnc2ccc(NC(=O)C#CCO)cc2c1Nc1cccc(Br)c1` [Example 57, N-[4-[(3-Bromophenyl)amino]-3-cyano-6-quinolinyl]-4-hydroxy-2-butynamide], the pIC50 in test [2] was 8.10.
The same measure, in the same setting: with `N#Cc1cnc2ccc(NC(=O)C#CCN3CCOCC3)cc2c1Nc1cccc(Br)c1` [Example 58, N-[4-[(3-Bromophenyl)amino]-3-cyano-6-quinoliny]-4-morpholino-2-butynamide] the figure was 8.70; with `CN(C)CC#CC(=O)Nc1ccc2ncc(C#N)c(Nc3cccc(Br)c3)c2c1` [Example 59, N-[4-[(3-Bromophenyl)amino]-3-cyano-6-quinolinyl]-4-dimethylamino-2-butynamide], 10.00.
Regarding `CN(C)CC=CC(=O)Nc1ccc2ncc(C#N)c(Nc3ccc(F)c(Cl)c3)c2c1` [Example 145], the IC50 with SKBR3 (read-out: IC50 SKBR3) was 0.03 µg/mL (≈ 0.0708 µM); with SW620 (read-out: IC50 SW620), 0.4 µg/mL (≈ 0.944 µM); in test [5], over 70.8 µM; with A431, 0.03 µg/mL (≈ 0.0708 µM). The results for the pIC50 in test [3], in test [4] and in [1] were under 4.33, 7.22 and 4.46, respectively.
